≈ marks a conversion by molar mass, not a printed value.
What was measured:
Hela cells = assay: Cytotoxicity, acid phosphatase assay, HeLa; assay type: cell-based, Human; details: 72 h; concentration of 50% growth inhibition
Description: (§1) (5). Determination of Cytotoxicity. Four human cancer cell lines, HeLa, Huh7, HCT116 and LoVo were used to assess cytotoxicity of the purified compounds. All the cell lines, except Huh7 cells,^14 were purchased from American Type Culture Collection. The cells were cultured in Dulbecco's modified Eagle medium (DMEM) supplemented with 10% fetal calf serum (FCS), 100 units/ml penicillin and […] streptomycin at 37° C. under 5% CO2. Cells were grown in a 96 well plate (2000 cells/well) with or without the addition of compounds 1, 2 or 3 for 72 h. An acid phosphatase assay^14,15 was then used to quantitate the viable cells. Briefly, after the media were aspirated, the cells were washed with phosphate buffer saline (PBS) and then incubated with 100 μl of 0.1M sodium acetate buffer containing 10 mM p-nitrophenyl phosphate and 0.1% Triton X-100, and incubated at 37° C. for 1 h. The reaction was stopped by the addition of 10 μl of 1 N NaOH and coloration of the cells was measured at 410 nm by an ELISA reader. The concentrations of 50% growth inhibition (IC50) were interpolated from dose-dependent growth inhibition curves. The data HeLa, Huh7, HCT116 and LoVo presented were the averages derived from a minimum of triplicate independent experiments.

Huh7 cells = assay: Cytotoxicity, acid phosphatase assay, Huh7; assay type: cell-based, Human; details: 72 h; concentration of 50% growth inhibition
Description: as §1

HCT116 cells = assay: Cytotoxicity, acid phosphatase assay, HCT116; assay type: cell-based, Human; details: 72 h; concentration of 50% growth inhibition
Description: as §1

Lovo cells = assay: Cytotoxicity, acid phosphatase assay, LoVo; assay type: cell-based, Human; details: 72 h; concentration of 50% growth inhibition
Description: as §1

[1] = tested on: four human cancer cell lines (HeLa, Huh7, HCT116, LoVo); assay: Cytotoxicity evaluation across four human cancer cell lines; assay type: cell-based
Description: as §1

[2] = Antioxidative potency (AOP), iron/ascorbate system with linoleic acid as substrate; assay type: biochemical; details: compared with BHT; FIG. 2; ca. 1, 4, 10 ppm; 37° C., 5 and 30 min
Description: (4). Determination of Antioxidative Activity: The procedure using an iron/ascorbate system reported by Yoon,^9 Chiou,^10 Decker,^11 Tamura,^12 and Sasaki^13 was modified. In a beaker (50 ml), 100 mg of linoleic acid, 1.0 g of Tween 20, and 20 ml of Tris-buffer (pH 7.4, 50 mM) were combined, gently shaken and emulsified with a sonicator for 2 min. An iron/ascorbate solution containing 30 μM FeCl3 and 200 μM ascorbic acid in the Tris-buffer (pH 7.4, 50 mM) was prepared daily. In a series of 1.5-ml microfuge tubes, 0.5 ml of the emulsified linoleic acid, 0.5 ml of the iron/ascorbate solution, and 0.1 ml of methanol containing various concentrations of the three compounds or BHT including 0, 10, 40 and 100 ppm (μg/ml) (resulting in ca. 0, 1, 4 and 10 ppm of concentration after combination) were deposited. Prior to incubation, the tubes were immersed and kept in an ice bath to minimize any reactions. To initiate reaction, the mixtures in the tubes were mixed by hand (gently to prevent foaming) and placed into the wells of a thermal block at 37° C. for 5 and 30 min. After incubation, the produced conjugated diene hydroperoxide (CDHP) contents were determined spectrophotometrically. […] The absorbance (A) at 234 nm of the mixture was measured. […] The percentage of AOP (capacity to inhibit peroxide formation in linoleic acid) was calculated as follows. […]

| Structure (SMILES) | IC50 Hela cells (Hela cells) [µg/mL] | IC50 Huh7 cells (Huh7 cells) [µg/mL] | IC50 HCT116 cells (HCT116 cells) [µg/mL] | IC50 Lovo cells (Lovo cells) [µg/mL] | cytotoxic activity against four human cancer cell lines [1] | antioxidative potency (AOP) [2] |
| --- | --- | --- | --- | --- | --- | --- |
| C/C=C/C=C/C/C=C\CCCCCCCCCc1cc(O)ccc1O [Compound 1, 10′(Z),13′(E),15′(E)-heptadecatrienylhydroquinone] | 2.8 (≈ 8.17 µM) | 3.9 (≈ 11.4 µM) | 2.0 (≈ 5.84 µM) | 4.5 (≈ 13.1 µM) | significant cytotoxic activity | close to that of BHT |
| CCC/C=C/C/C=C\CCCCCCCCCc1cc(O)ccc1O [Compound 2, 10′(Z),13′(E)-heptadecadienylhydroquinone] | 4.6 (≈ 13.4 µM) | 6.0 (≈ 17.4 µM) | 3.5 (≈ 10.2 µM) | 5.6 (≈ 16.3 µM) | significant cytotoxic activity | close to that of BHT |
